# Assay results published in paper PMC12067741, “Inhibition of SOD1 trimerization is a novel drug target for ALS disease” (Translational Neurodegeneration, 2025).
# pIC50: −log10 of the molar value. Entries after “also recorded” stand apart in the source; their conditions may differ. Read-outs that look alike come from different tables or passages of the source.
# Experiments:
# [1] = Metabolic stability in liver microsomes; assay type: in vitro ADME; conditions: SD rat liver microsomes
# [2] = Metabolic stability in liver microsomes; assay type: in vitro ADME; conditions: beagle dog liver microsomes
# Plasma stability [3] = assay type: in vitro ADME; conditions: CD-1 mouse plasma, after 120 min of incubation
# Plasma stability [4] = assay type: in vitro ADME; conditions: SD rat plasma, after 120 min of incubation
# Plasma stability [5] = assay type: in vitro ADME; conditions: beagle dog plasma, after 120 min of incubation
# CYP 3A = assay: CYP inhibition (direct)
# Source text: Fig. S8. Preclinical data of PRG-A-04 a Plasma protein binding b CYP inhibition(direct) […]
# d Mouse Brain Tissue penetration
# For the convenience of calculation, […]
# MT-SOD1 protein uptake = assay: SOD1 recombinant protein uptake into neuronal cells; assay type: cell-based
# Method: For monitoring the localization of SOD1 recombinant proteins, SOD1-Halo proteins were added in neuronal cultures for 2 h and then the cells were incubated with the cell-permeable HaloTag-fluorscent ligands (diAcFAM) for 30 min. After incubation, cells were washed with serum-free culture medium three times and incubated in serum-containing culture medium in a CO2 incubator for 30 min to wash out unbound ligand. Fluorescent images of live cells were obtained using a commercial Tomocube HT-2H holotomography system (Daejeon, Republic of Korea).
# We hypothesized that PRG-A-04, which targets trimeric SOD1, would inhibit SOD1 protein uptake. MT-SOD1 proteins were incubated with PRG-A-04 in vitro, and then cells were treated with the mixture. The MT-SOD1 protein uptake was reduced by incubation with PRG-A-04, as was SOD1 oligomerization (Fig. 3f, g). […] However, whether neuron-specific receptors on synapses, physiological conditions (neuronal cellular stress such as ion deficiency, environmental conditions such as hypoxia) and other ALS-related genetic causes (TDP-43, FUS, etc.) are essential for SOD1 uptake requires further study.
# Fig. S3 SOD1 protein uptake into the cells through endocytosis. a, The uptake of SOD1 proteins was achieved by endocytosis. SH-SY5Y cells were treated with SOD1 recombinant proteins and endocytosis inhibitor (Dynasore; […]) for 6hr. After incubations, cells were harvested with RIPA and separated by SDS-PAGE. S.E: short exposure, L.E: long exposure. b, The recombinant MT-SOD1 protein is located intracellular space in neuron cells. SOD1-Halo proteins (3 μg/ml) were treated in neuron cells for 2 hr and incubated with HaloTag-fluorscent ligands (cellpermeable ligands; diAcFAM) for 30 min. After incubation, cells were washed with fresh culture medium three times and.
# Incubate cells in complete culture medium at CO2 incubator for 30 min to wash unbound ligand. The fluorescence images of live cells were obtained using a commercial holotomography (HT-2H). White arrows indicate the intensity of SOD1. BF; Bright field, Scale bar; […].
# SK-N-SH cells = assay: Cell viability (MTT); assay type: cell-based; conditions: neuron cell line, 48 hr
# Method: (§1) Cells were incubated with 0.5 mg/mL of MTT solution (475989; Merck, Darmstadt, Germany) for 4 h at 37 °C. After removing excess solution and washing with PBS, the precipitated materials were dissolved in 200 μL DMSO and quantified by measuring absorbance at 540 nm.
# (§2) Fig. S1. Optimized inhibitor reduces SOD1 aggregation. a, Mutant SOD1s induced WT-SOD1 aggregation. Testing the selected chemicals to check the inhibitory effect on SOD1 aggregation .HEK293 cells were transfected with MT-SOD1 vectors (A4V, G 93 A) and treated with selected chemicals ([…]). After incubation, transfected cells were harvested with TNNI buffer and fixed with 0.04% glutaraldehyde (Glu) for 30min. Samples were separated using SDS-PAGE. b-c, PRG-A-04 inhibited SOD1 inclusions in SK-N-SH cells. […] After incubation, cells were fixed with 4 % PFA and observed under the fluorescence microscope. (c) Cells with SOD1 inclusions (white arrows; strong intensity of SOD1) were counted by photomicrographs and the percentages were shown with standard deviation (SD). For cell counting, ten fluorescence images were randomly selected. […]
# (§3) show cytotoxicity. To know the toxic effect of PRG-A-04 , human normal fibroblast (f) and neuron cells (g) were incubated with PRG -A-04 for 48 hr dose dependently and measured the viability through MTT assay .“Con” means Dimethyl sulfoxide (DMSO) -treated control . […]
# human normal fibroblast = assay: Cell viability (MTT); assay type: cell-based; conditions: 48 hr
# Method: as §1, §2, §3
smiles,measurement,setting,value
COc1cc(C=CCOC2Cc3cc4ccc(=O)oc4cc3OC2(C)C)ccc1[N+](=O)[O-] (centres unmarked) [PRG-A-04],extent of metabolism in liver microsomes,[1],highly metabolized
same,extent of metabolism in liver microsomes,[2],moderately metabolized; also recorded: metabolized significantly
same,stability in plasma,Plasma stability [3],stable
same,stability in plasma,Plasma stability [4],stable
same,stability in plasma,Plasma stability [5],stable
same,pIC50,CYP 3A,< 5.00
same,pIC50,"CYP 3A; read-out: IC50, DI, CYP 3A(midazolam), direct inhibition",< 5.00
same,effect on MT-SOD1 protein uptake,"MT-SOD1 protein uptake; MT-SOD1 protein pre-incubated with PRG-A-04 in vitro, then added to neuronal cells",selectively inhibited MT-SOD1 uptake; also recorded: reduced
same,effect on SOD1 oligomerization induced by SOD1 protein uptake,MT-SOD1 protein uptake; neuronal cells,reduced SOD1 oligomerization induced by SOD1 protein uptake
same,cytotoxicity,SK-N-SH cells,without severe cytotoxicity
same,cytotoxicity,human normal fibroblast,without severe cytotoxicity
